Patent US20200182856A1, “Method of Evaluating Nutriture” (OTSUKA PHARMACEUTICAL CO., LTD., priority 2016, published 2020)

Key:
[1] = Breath test using 13C-amino acid in fed and fasted ZDF lean rats; conditions: 50 μmol/kg orally; for time for which the tendency (Δ^13C higher in fasted than in fed state) continued: expired air collected up to 60 minutes
Protocol: ZDF lean rats were placed in the fed/fasted state and the light-dark cycle as described above. 1-^13C-leucine, 1-^13C-alanine, or 1-^13C-glutamic acid (Cambridge Isotope Laboratories, Inc (Andover, Mass., USA)) dissolved in physiological saline was administered orally at 50 μmol/kg each (n=4 for each amino acid) at 13:00 of Day 2 in the fed state or 13:00 of Day 3 in the fasted state. Expired air samples were collected before the administration (0 minutes) and at several time points up to 60 minutes after the administration and Δ^13C (%) values were measured using a mass spectrometer for breath analysis (“ABCA” Sercon).

[2] = Breath test using 13C-alanine in ZDF fatty rats F1 and F2; conditions: fed, 50 μmol/kg orally, from the start of the administration
Protocol: ZDF fatty rats F1 and F2 mentioned above were placed in the light-dark cycle as described above. 1-^13C-alanine dissolved in physiological saline was administered orally at 50 μmol/kg. Expired air samples were collected before the administration (0 minutes) and at several time points up to 60 minutes after the administration and Δ^13C (%) values were measured using a mass spectrometer for breath analysis (“ABCA” Sercon).

[3] = ZDF fatty rats (diabetes model), fed, 50 μmol/kg orally, from the start of the administration to the end of the measurement (60 minutes)
Protocol: ZDF fatty rats F1, F2, and F3 mentioned above were placed in the light-dark cycle as described above. 1-^13C-glutamic acid dissolved in physiological saline was administered orally at 50 μmol/kg. Expired air samples were collected before the administration (0 minutes) and at several time points up to 60 minutes after the administration and Δ^13C (%) values were measured using a mass spectrometer for breath analysis (“ABCA” Sercon).

SMILES	time for which the tendency (Δ^13C higher in fasted than in fed state) continued [1]	time after the administration up to which Δ^13C was higher in F1 rat than in F2 rat [2]	Δ^13C (%) values of expired air, fasted state compared with fed state ([1]; 10 minutes after the administration, n=4 for each amino acid)	Δ^13C (%) values of expired air, F1 rat (suspected sarcopenia) compared with F2 and F3 rats [3]
C[C@H](N)[13C](=O)O [1-^13C-alanine]	~20 min	about 50 minutes		
N[C@@H](CCC(=O)O)[13C](=O)O [1-^13C-glutamic acid]	~40 min		higher in the fasted state than in the fed state	higher in F1 rat than in F2 and F3 rats
CC(C)C[C@H](N)[13C](=O)O [1-^13C-leucine]	about 45 minutes			
